Measured values reported in patent publication US10159640B2, “Prebiotic oral care compositions containing amino acids” (COLGATE-PALMOLIVE COMPANY, priority 2013, dated 2018).

Experiments:
Type in all cases: cell-based
[1] = test system: beneficial oral bacteria and pathogenic oral bacteria; experiment: Metabolic activity, whole panel: prebiotic effect; conditions: threshold value of 2
Experimental: Substrates that were able to increase the metabolic activity of at least one of the above beneficial bacteria while not or only minimally increasing the growth of the pathogenic bacteria are considered to be prebiotic substrates. The extent of metabolic activity of the tested bacteria in the presence of the above-mentioned dipeptides after 24 hours and 48 hours was investigated through a high throughput phenotype microarray system (PM) for microbial cells (Biolog Inc.). Each PM can contain up to 95 different biochemical compounds (e.g. di-peptides) that may act as substrates for bacteria as well as one negative control, not containing the substrates. Microarray plates were used in which the different wells of each plate were pre-loaded (by the manufacturer, Biolog Inc.) with different di-peptides to be tested. Each bacterial species was tested using a separate microarray plate. Thus, a single bacterial species was tested with a variety of dipeptides on each particular plate. The microarrays are based on redox technology, using cell respiration as a universal reporter. Active cell respiration results in the reduction of a tetrazolium dye and in the formation of a strong color—for example, when using the tetrazolium dye “Biolog Redox Dye Mix D”, the color changes from transparent/colourless to purple when the dye is reduced. The observation of this color change indicates which of the substrates improve the metabolic activity and health of the cells. Each bacterial species was collected from blood agar plates (incubated for 48 hours anaerobically at 37° C.) and transferred to an IF-0 Base inoculation fluid (Biolog Inc.), which is a nutritionally poor medium. The resulting cell suspension was adjusted to a transmittance of 42% (relative to the transmittance of the base inoculation fluid with no bacterial species present) at 492 nm using a BioRad SmartSpec 3000 Photometer (the adjustment being effected by adding either further inoculation fluid or further bacteria until the transmittance of 42% was achieved). A 1:5 dilution of this suspension was prepared by mixing 3 mL of the 42% transmittance cell suspension with 15 mL of an inoculation fluid (which inoculation fluid was formed by mixing 11.6 mL sterile water, 62.5 mL IF-0 base inoculation fluid and 0.9 mL of the tetrazolium dye “Biolog Redox Dye mix D”), resulting in a final cell density which was equal to 85% transmittance using a BioRad SmartSpec 3000 Photometer. 680 μL of a 2M sodium succinate/200 μM ferric citrate solution in distilled water was added to 68 mL of the 85% transmittance cell suspension and 100 μL of this mixture was added to each well (the various di-peptides being already present in powder form in the relevant wells of the plate as obtained from the supplier i.e. Biolog Inc.). All plates were incubated in an anaerobic atmosphere at 37° C. Color changes were measured spectrophotometrically at 492 nm (Thermo Scientific Multiskan Ascent) at 24 hrs and 48 hrs using the same plate at both time points. […] After 24 hrs and 48 hrs under continuous shaking in a Multiscan microplate reader, the optical density (OD) of the synthetic medium at 24 hours and 48 hours was measured (using the microplate reader) at a wavelength of 492 nm for each combination of bacterium/dipeptide, and for each of their respective controls (i.e. which contained the particular bacterium but no dipeptide). […] The experiment was carried out three times for each combination of bacterium with dipeptide, with each repeat being carried out on a different day (thus providing three biological replicas). The controls were also carried out three times, as above. The values shown are the average (mean) of the three single values obtained (as detailed above) for each combination of bacterium with dipeptide, at 24 hrs and at 48 hrs. […] This value was selected in order to exclude low-stimulating metabolites and avoid false positive results.

[2] = test system: Capnocytophaga sputigena; experiment: Metabolic activity, Biolog phenotype microarray; conditions: control without dipeptide = 1
Experimental: (§1) The extent of metabolic activity of the tested bacteria in the presence of the above-mentioned dipeptides after 24 hours and 48 hours was investigated through a high throughput phenotype microarray system (PM) for microbial cells (Biolog Inc.). Each PM can contain up to 95 different biochemical compounds (e.g. di-peptides) that may act as substrates for bacteria as well as one negative control, not containing the substrates. Microarray plates were used in which the different wells of each plate were pre-loaded (by the manufacturer, Biolog Inc.) with different di-peptides to be tested. Each bacterial species was tested using a separate microarray plate. Thus, a single bacterial species was tested with a variety of dipeptides on each particular plate. The microarrays are based on redox technology, using cell respiration as a universal reporter. Active cell respiration results in the reduction of a tetrazolium dye and in the formation of a strong color—for example, when using the tetrazolium dye “Biolog Redox Dye Mix D”, the color changes from transparent/colourless to purple when the dye is reduced. The observation of this color change indicates which of the substrates improve the metabolic activity and health of the cells. Each bacterial species was collected from blood agar plates (incubated for 48 hours anaerobically at 37° C.) and transferred to an IF-0 Base inoculation fluid (Biolog Inc.), which is a nutritionally poor medium. The resulting cell suspension was adjusted to a transmittance of 42% (relative to the transmittance of the base inoculation fluid with no bacterial species present) at 492 nm using a BioRad SmartSpec 3000 Photometer (the adjustment being effected by adding either further inoculation fluid or further bacteria until the transmittance of 42% was achieved). A 1:5 dilution of this suspension was prepared by mixing 3 mL of the 42% transmittance cell suspension with 15 mL of an inoculation fluid (which inoculation fluid was formed by mixing 11.6 mL sterile water, 62.5 mL IF-0 base inoculation fluid and 0.9 mL of the tetrazolium dye “Biolog Redox Dye mix D”), resulting in a final cell density which was equal to 85% transmittance using a BioRad SmartSpec 3000 Photometer. 680 μL of a 2M sodium succinate/200 μM ferric citrate solution in distilled water was added to 68 mL of the 85% transmittance cell suspension and 100 μL of this mixture was added to each well (the various di-peptides being already present in powder form in the relevant wells of the plate as obtained from the supplier i.e. Biolog Inc.). All plates were incubated in an anaerobic atmosphere at 37° C. Color changes were measured spectrophotometrically at 492 nm (Thermo Scientific Multiskan Ascent) at 24 hrs and 48 hrs using the same plate at both time points. […] After 24 hrs and 48 hrs under continuous shaking in a Multiscan microplate reader, the optical density (OD) of the synthetic medium at 24 hours and 48 hours was measured (using the microplate reader) at a wavelength of 492 nm for each combination of bacterium/dipeptide, and for each of their respective controls (i.e. which contained the particular bacterium but no dipeptide). […] The experiment was carried out three times for each combination of bacterium with dipeptide, with each repeat being carried out on a different day (thus providing three biological replicas). The controls were also carried out three times, as above. The values shown are the average (mean) of the three single values obtained (as detailed above) for each combination of bacterium with dipeptide, at 24 hrs and at 48 hrs.

[3] = test system: Porphyromonas gingivalis; experiment: Metabolic activity, Biolog phenotype microarray; conditions: control without dipeptide = 1
Experimental: as §1

[4] = test system: Streptococcus salivarius; experiment: Metabolic activity, Biolog phenotype microarray; conditions: control without dipeptide = 1
Experimental: as §1

[5] = test system: Prevotella intermedia; experiment: Metabolic activity, Biolog phenotype microarray; conditions: control without dipeptide = 1
Experimental: as §1

[6] = test system: Streptococcus mitis; experiment: Metabolic activity, Biolog phenotype microarray; conditions: control without dipeptide = 1
Experimental: as §1

[7] = test system: Streptococcus sobrinus; experiment: Metabolic activity, Biolog phenotype microarray; conditions: control without dipeptide = 1
Experimental: as §1

[8] = test system: Tannerella forsythia; experiment: Metabolic activity, Biolog phenotype microarray; conditions: control without dipeptide = 1
Experimental: as §1

[9] = test system: Fusobacterium nucleatum; experiment: Metabolic activity, Biolog phenotype microarray; conditions: control without dipeptide = 1
Experimental: as §1

[10] = test system: Actinomyces viscosus; experiment: Metabolic activity, Biolog phenotype microarray; conditions: control without dipeptide = 1
Experimental: as §1

[11] = test system: Streptococcus gordonii; experiment: Metabolic activity, Biolog phenotype microarray; conditions: control without dipeptide = 1
Experimental: as §1

[12] = test system: Actinomyces naeslundii; experiment: Metabolic activity, Biolog phenotype microarray; conditions: control without dipeptide = 1
Experimental: as §1

[13] = test system: Aggregatibacter actinomycetemcomitans; experiment: Metabolic activity, Biolog phenotype microarray; conditions: control without dipeptide = 1
Experimental: as §1

[14] = test system: Streptococcus mutans; experiment: Metabolic activity, Biolog phenotype microarray; conditions: control without dipeptide = 1
Experimental: as §1

[15] = test system: Streptococcus sanguinis; experiment: Metabolic activity, Biolog phenotype microarray; conditions: control without dipeptide = 1
Experimental: as §1

[16] = test system: Veillonella parvula; experiment: Metabolic activity, Biolog phenotype microarray; conditions: control without dipeptide = 1
Experimental: as §1

| Substance | prebiotic effects (metabolic activity) ([1]; 48 hrs) | metabolic activity: OD 492 nm divided by OD of control ([2]; 24 hrs) | metabolic activity: OD 492 nm divided by OD of control ([2]; 48 hrs) | metabolic activity: OD 492 nm divided by OD of control ([3]; 24 hrs) | metabolic activity: OD 492 nm divided by OD of control ([3]; 48 hrs) | metabolic activity: OD 492 nm divided by OD of control ([4]; 24 hrs) | metabolic activity: OD 492 nm divided by OD of control ([4]; 48 hrs) | metabolic activity: OD 492 nm divided by OD of control ([5]; 24 hrs) | metabolic activity: OD 492 nm divided by OD of control ([5]; 48 hrs) | metabolic activity: OD 492 nm divided by OD of control ([6]; 24 hrs) | metabolic activity: OD 492 nm divided by OD of control ([6]; 48 hrs) | metabolic activity: OD 492 nm divided by OD of control ([7]; 24 hrs) | metabolic activity: OD 492 nm divided by OD of control ([7]; 48 hrs) | metabolic activity: OD 492 nm divided by OD of control ([8]; 24 hrs) | metabolic activity: OD 492 nm divided by OD of control ([8]; 48 hrs) | metabolic activity: OD 492 nm divided by OD of control ([9]; 24 hrs) | metabolic activity: OD 492 nm divided by OD of control ([9]; 48 hrs) | metabolic activity: OD 492 nm divided by OD of control ([10]; 24 hrs) | metabolic activity: OD 492 nm divided by OD of control ([10]; 48 hrs) | metabolic activity: OD 492 nm divided by OD of control ([11]; 24 hrs) | further results |
| --- | --- | --- | --- | --- | --- | --- | --- | --- | --- | --- | --- | --- | --- | --- | --- | --- | --- | --- | --- | --- | --- |
| Glu-Trp | exhibited prebiotic effects | 1.7818 | 1.4150 | 0.9385 | 0.8770 | 1.0068 | 0.9525 | 1.0170 | 0.9148 | 0.9457 | 0.9396 | 1.0018 | 0.9874 | 0.9320 | 0.9303 | 0.9011 | 0.8364 | 1.5845 | 2.1016 | 1.1537 | metabolic activity: OD 492 nm divided by OD of control ([11]; 48 hrs): 1.4320; metabolic activity: OD 492 nm divided by OD of control ([12]; 24 hrs): 1.1008; metabolic activity: OD 492 nm divided by OD of control ([12]; 48 hrs): 1.2040; metabolic activity: OD 492 nm divided by OD of control ([13]; 24 hrs): 0.9494; metabolic activity: OD 492 nm divided by OD of control ([13]; 48 hrs): 0.8665; metabolic activity: OD 492 nm divided by OD of control ([14]; 24 hrs): 0.9492; metabolic activity: OD 492 nm divided by OD of control ([14]; 48 hrs): 1.0170; metabolic activity: OD 492 nm divided by OD of control ([15]; 24 hrs): 0.9983; metabolic activity: OD 492 nm divided by OD of control ([15]; 48 hrs): 1.0208; metabolic activity: OD 492 nm divided by OD of control ([16]; 24 hrs): 0.8378; metabolic activity: OD 492 nm divided by OD of control ([16]; 48 hrs): 0.7873 |
| Ser-Asn | exhibited prebiotic effects | 2.2418 | 1.5699 | 1.0079 | 1.2165 | 1.1917 | 1.5886 | 1.1002 | 1.1329 | 1.0807 | 1.5785 | 1.2753 | 1.7028 | 1.2030 | 1.4354 | 1.2165 | 1.4289 | 1.7174 | 2.0421 | 0.8814 | prebiotic effects (metabolic activity) ([1]; 24 hrs): exhibited prebiotic effects; metabolic activity: OD 492 nm divided by OD of control ([11]; 48 hrs): 1.3337; metabolic activity: OD 492 nm divided by OD of control ([12]; 24 hrs): 1.3199; metabolic activity: OD 492 nm divided by OD of control ([12]; 48 hrs): 1.6167; metabolic activity: OD 492 nm divided by OD of control ([13]; 24 hrs): 1.3093; metabolic activity: OD 492 nm divided by OD of control ([13]; 48 hrs): 1.7285; metabolic activity: OD 492 nm divided by OD of control ([14]; 24 hrs): 1.2715; metabolic activity: OD 492 nm divided by OD of control ([14]; 48 hrs): 1.7588; metabolic activity: OD 492 nm divided by OD of control ([15]; 24 hrs): 1.1935; metabolic activity: OD 492 nm divided by OD of control ([15]; 48 hrs): 1.5794; metabolic activity: OD 492 nm divided by OD of control ([16]; 24 hrs): 1.1101; metabolic activity: OD 492 nm divided by OD of control ([16]; 48 hrs): 1.1143 |
| Ser-Gln | exhibited prebiotic effects | 2.2409 | 1.6963 | 1.1453 | 1.4999 | 1.1847 | 1.6185 | 1.2382 | 1.3661 | 1.0595 | 1.5980 | 1.1504 | 1.6280 | 1.1929 | 1.4647 | 1.2502 | 1.6185 | 1.6173 | 2.0308 | 0.9754 | prebiotic effects (metabolic activity) ([1]; 24 hrs): exhibited prebiotic effects; metabolic activity: OD 492 nm divided by OD of control ([11]; 48 hrs): 1.4584; metabolic activity: OD 492 nm divided by OD of control ([12]; 24 hrs): 1.2183; metabolic activity: OD 492 nm divided by OD of control ([12]; 48 hrs): 1.5857; metabolic activity: OD 492 nm divided by OD of control ([13]; 24 hrs): 0.9996; metabolic activity: OD 492 nm divided by OD of control ([13]; 48 hrs): 1.1574; metabolic activity: OD 492 nm divided by OD of control ([14]; 24 hrs): 1.2511; metabolic activity: OD 492 nm divided by OD of control ([14]; 48 hrs): 1.7642; metabolic activity: OD 492 nm divided by OD of control ([15]; 24 hrs): 1.1901; metabolic activity: OD 492 nm divided by OD of control ([15]; 48 hrs): 1.6298; metabolic activity: OD 492 nm divided by OD of control ([16]; 24 hrs): 0.8812; metabolic activity: OD 492 nm divided by OD of control ([16]; 48 hrs): 0.8706 |
